What was measured:
[1] = target: T1, human glycogen phosphorylase a (Homo sapiens, UniProt P06737); test: Glycogen phosphorylase a activity test (reverse direction, release of inorganic phosphate); format: biochemical; conditions: 10 μM test substance, duplicate determinations, 40 min at room temperature
T1 sequence (P06737 2-847 limits assumed): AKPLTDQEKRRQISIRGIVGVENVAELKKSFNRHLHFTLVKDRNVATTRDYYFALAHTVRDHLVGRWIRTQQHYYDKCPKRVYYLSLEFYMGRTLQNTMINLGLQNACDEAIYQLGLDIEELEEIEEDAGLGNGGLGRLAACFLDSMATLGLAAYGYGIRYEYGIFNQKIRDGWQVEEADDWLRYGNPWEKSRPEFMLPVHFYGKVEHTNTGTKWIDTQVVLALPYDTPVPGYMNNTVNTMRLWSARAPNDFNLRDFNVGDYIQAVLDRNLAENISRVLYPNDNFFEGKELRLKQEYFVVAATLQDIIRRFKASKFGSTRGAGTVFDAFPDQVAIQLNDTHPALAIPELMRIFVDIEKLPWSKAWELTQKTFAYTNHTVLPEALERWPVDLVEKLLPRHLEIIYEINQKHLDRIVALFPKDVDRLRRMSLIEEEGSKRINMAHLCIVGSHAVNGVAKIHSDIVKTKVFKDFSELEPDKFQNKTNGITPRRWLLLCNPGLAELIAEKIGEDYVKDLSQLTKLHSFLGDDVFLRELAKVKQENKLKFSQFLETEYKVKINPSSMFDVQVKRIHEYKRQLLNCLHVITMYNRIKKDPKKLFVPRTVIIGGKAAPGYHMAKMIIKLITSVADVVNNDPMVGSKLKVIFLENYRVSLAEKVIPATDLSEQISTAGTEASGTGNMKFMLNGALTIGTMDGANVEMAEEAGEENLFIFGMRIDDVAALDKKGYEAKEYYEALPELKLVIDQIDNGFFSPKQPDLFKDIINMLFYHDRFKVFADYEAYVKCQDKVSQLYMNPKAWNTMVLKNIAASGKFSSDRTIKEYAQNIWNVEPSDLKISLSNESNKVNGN
Experimental: Glycogen Phophorylase a Activity Test
All reactions were carried out as duplicate determinations in 96-well microtiter plates (half area plates, Costar No. 3696), and the change in absorption as a consequence of the formation of the reaction product was measured at the wavelength specified below in a Multiskan Ascent Elisa Reader (Lab Systems, Finland).
In order to measure the GPa enzyme activity in the reverse direction, the conversion of glucose 1-phosphate to glycogen and inorganic phosphate was measured by the general method of Engers et al. (Engers H D, Shechosky S, Madsen N B, Can J Biochem 1970 July;48(7):746–754) with the following modifications: human glycogen phosphorylase a (for example containing 0.76 mg of protein/ml (Aventis Pharma Deutschland GmbH), dissolved in buffer solution E (25 mM β-glycerophosphate, pH 7.0, 1 mM EDTA and 1 mM dithiothreitol) was diluted to a concentration of 10 μg of protein/ml with buffer T (50 mM Hepes, pH 7.0, 100 mM KCl, 2.5 mM EDTA, 2.5 mM MgCl26H2O) and addition of 5 mg/ml of glycogen. Test substances were prepared as a 10 mM solution in DMSO and diluted to 50 μM with buffer solution T. To 10 μl of this solution were added 10 μl of 37.5 mM glucose dissolved in buffer solution T and 5 mg/ml of glycogen, and also 10 μl of a solution of human glycogen phosphorylase a (10 μg of protein/ml) and 20 μl of 2.5 mM glucose 1-phosphate. The base value of the activity of glycogen phosphorylase a in the absence of test substance was determined by adding 10 μl of buffer solution T (0.1% DMSO). The mixture was incubated at room temperature for 40 minutes and the released inorganic phosphate was determined by means of the general method of Drueckes et al. (al (Drueckes P, Schinzel R, Palm D, Anal Biochem 1995 Sep. 1;230(1):173–177) with the following modifications: 50 μl of a stop solution of 7.3 mM of ammonium molybdate, 10.9 mM of zinc acetate, 3.6% of ascorbic acid, 0.9% of SDS are added to 50 μl of the enzyme mixture. After 60 minutes of incubation at 45° C., the absorption was measured at 820 nm. To determine the background absorption, the stop solution was added immediately after the addition of the glucose 1-phosphate solution in a separate reaction. This test was carried out at a concentration of 10 μM of the test substance, in order to determine the respective inhibition of glycogen phosphorylase a by the test substance in vitro.

[2] = target: T1, human glycogen phosphorylase a; test: as above; format: biochemical; conditions: 10 μM test substance; duplicate determinations; 40 min at room temperature

melting point	% inhibition at 10 μM [1]	IC50 at 10 μM [2]	% inhibition at 10 μM ([1]; 10 µM)	Structure (SMILES)
> 350 °C	98%			O=C(NC(=O)c1cc(F)c(F)cc1Cl)Nc1ccc(-c2n[nH]c(O)n2)cc1OC(F)(F)F [Example 6f, 1-(2-chloro-4,5-difluorobenzoyl)-3-[2-trifluoromethoxy-4-(5-hydroxy-1H-[1,2,4]triazol-3-yl)phenyl]urea]
229.7 °C	100%			O=C(NC(=O)c1ccc(F)cc1Cl)Nc1ccccc1-c1nnc(O)o1 [Example 8d, 1-(2-chloro-4-fluorobenzoyl)-3-[2-(5-hydroxy-[1,3,4]oxadiazol-2-yl)phenyl]urea]
293.1 °C	97%			COc1cc(-c2nnc(O)o2)ccc1NC(=O)NC(=O)c1cc(F)c(F)cc1Cl [Example 8e, 1-(2-chloro-4,5-difluorobenzoyl)-3-[4-(5-hydroxy-[1,3,4]oxadiazol-2-yl)-2-methoxyphenyl]urea]
222.9 °C	99%			O=C(NC(=O)c1cc(F)c(F)cc1Cl)Nc1ccccc1-c1nnc(O)o1 [Example 8f, 1-(2-chloro-4,5-difluorobenzoyl)-3-[2-(5-hydroxy-[1,3,4]oxadiazol-2-yl)phenyl]urea]
204 °C	98%			O=C(NC(=O)c1ccc(F)cc1Cl)Nc1ccccc1-c1nnco1 [Example 8g, 1-(2-chloro-4-fluorobenzoyl)-3-(2-[1,3,4]oxadiazol-2-ylphenyl)urea]
199.6 °C	100%			O=C(NC(=O)c1cc(F)c(F)cc1Cl)Nc1ccccc1-c1nnco1 [Example 8h, 1-(2-chloro-4,5-difluorobenzoyl)-3-(2-[1,3,4]oxadiazol-2-ylphenyl)urea]
198 °C	54%			CNc1nn(-c2ccc(NC(=O)NC(=O)c3ccc(F)cc3Cl)c(C)c2)c(=O)o1 [Example 9f, 1-(2-chloro-4-fluorobenzoyl)-3-(2-methyl-4-(5-methylamino-2-oxo-3H-[1,3,4]-oxadiazol-3-yl)phenyl)urea]
230.1 °C	98%			O=C(NC(=O)c1ccc(F)cc1Cl)Nc1ccc(-c2noc(=O)[nH]2)cc1OC(F)(F)F [Example 11e, 1-(2-chloro-4-fluorobenzoyl)-3-[4-(5-oxo-4,5-dihydro-[1,2,4]oxadiazol-3-yl)-2-trifluoromethoxyphenyl]urea]
243.6 °C	98%			O=C(NC(=O)c1ccc(F)cc1Cl)Nc1ccc(-c2noc(=O)[nH]2)cc1Cl [Example 11f, 1-(2-chloro-4-fluorobenzoyl)-3-[2-chloro-4-(5-oxo-4,5-dihydro-[1,2,4]oxadiazol-3-yl)phenyl]urea]
239.3 °C	100%			O=C(NC(=O)c1cc(F)c(F)cc1Cl)Nc1ccccc1-c1ccc(C(=O)O)o1 [Example 13b, 5-{2-[3-(2-chloro-4,5-difluorobenzoyl)ureido]phenyl}furan-2-carboxylic acid]
236.3 °C	100%			O=C(NC(=O)c1ccc(F)cc1Cl)Nc1ccccc1-c1ccc(C(=O)O)o1 [Example 13c, 5-{2-[3-(2-chloro-4-fluorobenzoyl)ureido]phenyl}furan-2-carboxylic acid]
216 °C	0.3%			NC(=O)C1CCCN(c2ccc(F)cc2NC(=O)NC(=O)c2cc(F)c(F)cc2Cl)C1 (stereo not drawn) [Example 15c, 1-{2-[3-(2-chloro-4,5-difluorobenzoyl)ureido]-4-fluorophenyl}piperidine-3-carboxamide]

Continued, molecule first:

Structure (SMILES)	melting point	% inhibition at 10 μM [1]	IC50 at 10 μM [2]	% inhibition at 10 μM ([1]; 10 µM)
O=C(NC(=O)c1cc(F)c(F)cc1Cl)Nc1cc(F)ccc1N1CCC(C(=O)[O-])CC1.[Na+]	160.9 °C			
O=C(NC(=O)c1cc(F)c(F)cc1Cl)Nc1cc(F)ccc1N1CCC(C(=O)O)CC1 [Example 16c, 1-{2-[3-(2-chloro-4,5-difluorobenzoyl)ureido]-4-fluorophenyl}piperidine-4-carboxylic acid]	221.7 °C			
O=C(NC(=O)c1cc(F)c(F)cc1Cl)Nc1cc(F)ccc1N1CCCC(C(=O)O)C1 (stereo not drawn) [Example 17]			10 nM	
COC(=O)C1CCN(c2ccc(Cl)cc2NC(=O)NC(=O)c2cc(F)c(F)cc2Cl)CC1 [Example 29]			10 nM	
O=C(NC(=O)c1cc(F)c(F)cc1Cl)Nc1cc(Cl)ccc1N1CCCC(C(=O)O)C1 (stereo not drawn) [Example 31]			10 nM	
CCN(CC)C(=O)C1CCCN(c2ccc(F)cc2NC(=O)NC(=O)c2cc(F)c(F)cc2Cl)C1 (stereo not drawn) [Example 37]		3.9%		
CCN(CC)C(=O)C1CCCN(c2ccc(F)cc2NC(=O)NC(=O)c2ccc(F)cc2Cl)C1 (stereo not drawn) [Example 38]		4.6%		
COC(=O)C1CCN(c2ccc(F)cc2NC(=O)NC(=O)c2cc(F)c(F)cc2Cl)CC1 [Example 39]			10 nM	
COC(=O)C1CCN(c2ccc(F)cc2NC(=O)NC(=O)c2ccc(F)cc2Cl)CC1 [Example 40]		4.6%		
O=C(NC(=O)c1ccc(F)cc1Cl)Nc1cc(C(F)(F)F)ccc1N1CCC(C(=O)O)CC1 [Example 43]				0.15%
COC(=O)C1CCN(c2ccc(S(C)(=O)=O)cc2NC(=O)NC(=O)c2cc(F)c(F)cc2Cl)CC1 [Example 44]		0.05%		
COC(=O)C1CCN(c2ccc(S(C)(=O)=O)cc2NC(=O)NC(=O)c2ccc(F)cc2Cl)CC1 [Example 45]		0.8%		

From patent US7138414B2, “Heterocyclically substituted benzoylureas, process for their preparation and their use as pharmaceuticals” (Sanofi-Aventis Deutschland GmbH, priority 2002, dated 2006)
